Measurements from patent publication US10780090B2, “Heteroaryl compounds useful as inhibitors of SUMO activating enzyme” (Millennium Pharmaceuticals, Inc., priority 2014, dated 2020).

Target: recombinant human SAE enzyme (Homo sapiens (Human), UniProt Q9UBT2)
Test: SAE HTRF enzyme assay
Type: biochemical
Settings: for Percent Inhibition: SAE inhibition at compound concentration 0.111 μM
Method in brief: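 HTRF read-out using Eu-cryptate anti-Flag and allophycocyanin anti-GST antibodies, added with EDTA stop buffer and read after 2 h at 24 °C. The preceding reaction ran 105 min at 24 °C: 0.11 nM recombinant SAE, 0.5 μM ATP, Sumo-Flag, Ubc9-GST, pH 7.5. Values given as single-concentration inhibition or IC50.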

[1] = SAE inhibition, class symbols, legend in nM

Chain of recombinant human SAE enzyme (Q9UBT2 whole entry): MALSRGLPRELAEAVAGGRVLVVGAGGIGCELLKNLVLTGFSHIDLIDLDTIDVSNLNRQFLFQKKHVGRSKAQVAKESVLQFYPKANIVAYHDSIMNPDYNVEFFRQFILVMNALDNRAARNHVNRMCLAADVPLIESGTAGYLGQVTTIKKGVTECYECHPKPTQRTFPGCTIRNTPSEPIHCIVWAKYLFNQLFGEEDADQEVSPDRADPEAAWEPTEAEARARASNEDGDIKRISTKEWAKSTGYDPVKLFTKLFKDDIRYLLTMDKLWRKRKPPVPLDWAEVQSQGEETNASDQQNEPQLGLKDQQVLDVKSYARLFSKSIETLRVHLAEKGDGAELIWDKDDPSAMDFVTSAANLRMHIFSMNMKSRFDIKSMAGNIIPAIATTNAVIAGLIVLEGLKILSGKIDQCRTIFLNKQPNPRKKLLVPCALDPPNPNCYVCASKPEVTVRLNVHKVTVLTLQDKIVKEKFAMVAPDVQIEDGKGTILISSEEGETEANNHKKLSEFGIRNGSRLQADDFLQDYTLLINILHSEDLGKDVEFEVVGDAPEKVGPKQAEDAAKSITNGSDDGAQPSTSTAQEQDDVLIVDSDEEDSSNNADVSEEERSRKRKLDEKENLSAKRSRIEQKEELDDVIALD
Chain of recombinant human SAE enzyme (Q9UBE0 whole entry partner): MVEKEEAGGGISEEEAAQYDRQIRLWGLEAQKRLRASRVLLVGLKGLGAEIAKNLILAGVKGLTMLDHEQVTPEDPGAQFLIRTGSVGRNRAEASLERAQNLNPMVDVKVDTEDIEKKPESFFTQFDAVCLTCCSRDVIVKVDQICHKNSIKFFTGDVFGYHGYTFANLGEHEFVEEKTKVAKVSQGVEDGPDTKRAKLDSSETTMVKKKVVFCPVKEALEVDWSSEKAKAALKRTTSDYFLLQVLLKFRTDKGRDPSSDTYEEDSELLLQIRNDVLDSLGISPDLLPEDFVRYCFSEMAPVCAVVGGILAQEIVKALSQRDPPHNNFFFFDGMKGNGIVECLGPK

Row | SMILES | Percent Inhibition | IC50 [1] | inhibition at 0.111 µM (Concentration 0.111 μM, read-out: Percent Inhibition) | IC50 (class symbols A/B/C)
1 | Cc1nc2c(s1)CCO[C@H]2c1cc(C(=O)c2cncnc2N[C@@H]2C[C@H](COS(N)(=O)=O)[C@@H](O)C2)sc1C (single isomer, unassigned) [I-287b, [(1R,2S,4R)-2-hydroxy-4-{[5-({5-methyl-4-[(4S)-2-methyl-6,7-dihydro-4H-pyrano[3,4-d][1,3]thiazol-4-yl]-2-thienyl}carbonyl)pyrimidin-4-yl]amino}cyclopentyl]methyl sulfamate or [(1R,2S,4R)-2-hydroxy-4-{[5-({5-methyl-4-[(4R)-2-methyl-6,7-dihydro-4H-pyrano[3,4-d][1,3]thiazol-4-yl]-2-thienyl}carbonyl)pyrimidin-4-yl]amino}cyclopentyl]methyl sulfamate] | 98% | < 10 nM |  | 
2 | CN1Cc2ccc(Cl)cc2[C@@H]1c1cc(C(=O)c2cncnc2N[C@@H]2C[C@H](COS(N)(=O)=O)[C@@H](O)C2)sc1Cl (single isomer, unassigned) [I-284b, [(1R,2S,4R)-4-{[5-({5-chloro-4-[(1R)-6-chloro-2-methyl-2,3-dihydro-1H-isoindol-1-yl]-2-thienyl}carbonyl)pyrimidin-4-yl]amino}-2-hydroxycyclopentyl]methyl sulfamate or [(1R,2S,4R)-4-{[5-({5-chloro-4-[(1S)-6-chloro-2-methyl-2,3-dihydro-1H-isoindol-1-yl]-2-thienyl}carbonyl)pyrimidin-4-yl]amino}-2-hydroxycyclopentyl]methyl sulfamate] | 99% | < 10 nM |  | 
3 | Cc1sc(C(=O)c2cncnc2N[C@@H]2C[C@H](COS(N)(=O)=O)[C@@H](O)C2)cc1[C@H]1SCc2ccc(Cl)cc21 (racemic) [I-359b, [(1RS,2SR,4RS)-4-[5-[4-[(1S)-6-chloro-1,3-dihydro-2-benzothiophene-1-yl]-5-methyl-thiophene-2-carbonyl]pyrimidin-4-yl]amino]-2-hydroxy-cyclopentyl]methyl sulfamate] | 95% | < 10 nM |  | 
4 | NS(=O)(=O)OC[C@H]1C[C@@H](Nc2ncncc2C(=O)c2cc([C@@H]3CCc4ccc(Cl)cc43)cs2)C[C@@H]1O (mixture of isomers) [I-349, [(1R,2S,4R)-4-{[5-({4-[(1R)-6-chloro-2,3-dihydro-1H-inden-1-yl]-2-thienyl}carbonyl)pyrimidin-4-yl]amino}-2-hydroxycyclopentyl]methyl sulfamate and [(1R,2S,4R)-4-{[5-({4-[(1S)-6-chloro-2,3-dihydro-1H-inden-1-yl]-2-thienyl}carbonyl)pyrimidin-4-yl]amino}-2-hydroxycyclopentyl]methyl sulfamate] | 42% | 100 to 1000 nM |  | 
5 | NS(=O)(=O)OC[C@H]1C[C@@H](Nc2ncncc2C(=O)c2cc(CO)c(Cc3cccc(Cl)c3)s2)C[C@@H]1O [I-142, {(1R,2S,4R)-4-[(5-{[5-(3-chlorobenzyl)-4-(hydroxymethyl)-2-thienyl]carbonyl}pyrimidin-4-yl)amino]-2-hydroxycyclopentyl}methyl sulfamate] |  |  | 94% | < 10 nM
6 | Cc1nc2c(s1)[C@H](c1cc(C(=O)c3cncnc3N[C@@H]3C[C@H](COS(N)(=O)=O)[C@@H](O)C3)sc1C)OCC2 (single isomer, unassigned) [I-305a, [(1R,2S,4R)-2-hydroxy-4-{[5-({5-methyl-4-[(4S)-2-methyl-6,7-dihydro-4H-pyrano[4,3-d][1,3]thiazol-4-yl]-2-thienyl}carbonyl)pyrimidin-4-yl]amino}cyclopentyl]methyl sulfamate or [(1R,2S,4R)-2-hydroxy-4-{[5-({5-methyl-4-[(4R)-2-methyl-6,7-dihydro-4H-pyrano[4,3-d][1,3]thiazol-4-yl]-2-thienyl}carbonyl)pyrimidin-4-yl]amino}cyclopentyl]methyl sulfamate] | 28% | 100 to 1000 nM |  | 
